Results taken from patent EP4628074A1, “N-PALMITOYLETHANOLAMIDE FOR USE IN COMBINATION WITH A NON-STEROIDAL ANTI-INFLAMMATORY DRUG IN THE TREATMENT OF INFLAMMATORY PAIN” (priority 2024, dated 2025).
Where “and” joins values, the source holds several entries; their conditions need not be identical. Equal entries are not always repeated. Entries after “also recorded” stand apart in the source; their conditions may differ.

How the values were obtained:
[1] = test system: CFA-induced inflammatory pain; assay: Paw pressure test, CFA-induced inflammatory pain, single (acute) oral administration (Experiment 1); assay type: in vivo, male Sprague-Dawley rats; settings: for Pr > F: PEA 10 mg/kg
Excerpt: In the in vivo experimentation, male Sprague-Dawley rats (200-250 g) (Envigo, Varese, Italy) fed "ad libitum" and housed in cages with a controlled sleep/wake cycle were used.
Before the start of the study, the animals were subjected to a 1-week acclimatization period at the Center for Laboratory Animal Sheltering (Ce.S.A.L.) of the University of Florence, following all experimental procedures and protocols compliant with the principles of care and welfare of laboratory animals approved by the Italian Ministry of Health (Italian Legislative Decree 2014/26), European directives (EU Directive 2010/63) and the ARRIVE guidelines.
In order to cause inflammatory pain, Complete Freund's Adjuvant (CFA) was injected at a rate of 50 µL into the joint cavity of the left leg between the tibiofibular and tarsal bones after light anesthesia with 2% isoflurane. The control group was subjected to the same procedure, injecting an equal volume of saline solution (vehicle).
The animals were divided into 9 groups of 6 rats each and treated acutely per os with a single administration, starting from the seventh day after the induction of joint damage. • Group 1: healthy rats subjected to intra-articular injection of saline (vehicle group) • Group 2: rats injected with CFA and treated with 1% CMC, corresponding to the vehicle in which the compounds for the treatments of the following groups were suspended (CFA group); • Group 3: rats injected with CFA and treated with micronized PEA 10 mg/kg; • Group 4: rats injected with CFA and treated with diclofenac 30 mg/kg; • Group 5: rats injected with CFA and treated with diclofenac 3 mg/kg; • Group 6: rats injected with CFA and treated with diclofenac 3 mg/kg + micronized PEA 10 mg/kg; • Group 7: rats injected with CFA and treated with meloxicam 30 mg/kg; • Group 8: rats injected with CFA and treated with meloxicam 3 mg/kg; • Group 9: rats injected with CFA and treated with meloxicam 3 mg/kg + micronized PEA 10 mg/kg.
All animals were subjected to the paw pressure test at the level of the ipsilateral paw, performed before (T0) or after 15, 30, 45 and 60 minutes after the single administration of the treatment (T15, T30, T45 and T60, respectively). In particular, the nociceptive threshold was calculated with an analgesiometer (Ugo Basile, Varese, Italy) by applying an increasing pressure at constant speed (32 g/s) by means of a non-pointed conical support on the dorsal surface of the ipsilateral paw with respect to the injection of CFA (or vehicle). The nociceptive threshold was expressed as the force (in decagrams, dag) to which the animal reacts by retracting the paw or vocalizing (Leighton GE et al. kappa-Opioid agonists produce antinociception after i.v. and i.c.v. but not intrathecal administration in the rat. Br J Pharmacol. 1988; 93: 553-60).
The values emerged from the paw pressure test in the different treatment groups were compared with each other using the Generalized Linear Mixed Model (GLMM) followed by post-hoc analysis based on Tukey-Kramer correction for multiple comparisons, referring to the single treatment group, considering all the times.
The AUC was analyzed by a two-way factor analysis of variance (2x2 ANOVA), after plotting the mean values, according to the procedure shown by Slinker BK. The statistics of synergism. J Mol Cell Cardiol. 1998 Apr;30(4):723-31. The values were expressed as mean ± standard error mean (SEM). All the statistical analyses were carried out using the software SAS, version 9.4 (SAS Institute, Cary, NC, USA). The value p < 0.05 was considered significant.

[2] = test system: collagen-induced arthritis; assay: Arthritis severity score in collagen-induced arthritis (CIA) (Experiment 2); assay type: in vivo, Female Lewis rats; settings: PEA 30 mg/kg; for Pr > F: 2x2 factor analysis on severity of arthritis, ibuprofen 5 mg/kg, PEA*IBU = interaction (synergy)
Method: (§1) Rheumatoid arthritis is a disease characterized by inflammatory pain, in which the involved joints present swelling, stiffness and often erosive processes. Female Lewis rats were maintained on a 12/12 hour light/dark cycle, at constant temperature and humidity and acclimated for 1 week, with free access to water and standard diet. […] Arthritis score, change in paw volume (mL), and change in body weight (g) were measured as indicators of inflammatory pain. Arthritis severity was measured every other day starting on day 25, using the following score: 0 = no sign of arthritis; 1 = swelling and/or redness of the paw or toe; 2 = two joints involved; 3 = more than two joints involved; and 4 = severe arthritis of the entire paw and toes. The arthritis index for each subject was calculated by adding the four scores of the individual paws. The change in paw volume compared to day 21 was assessed every two days by plethysmometry (Ugo Basile) starting from day 25. The change in weight was measured for each animal on day 21 and then every two days starting from day 25.
(§2) The chosen inflammatory pain indicators were analyzed via Generalized Linear Model (GLM) followed by post-hoc analysis based on Tukey-Kramer correction for multiple comparisons. […] All analyzes were performed using SAS software, version 9.4 (SAS Institute, Cary, NC, USA). P value < 0.05 was considered significant.

[3] = test system: collagen-induced arthritis; assay: Body weight change in collagen-induced arthritis (CIA) (Experiment 2); assay type: in vivo, Female Lewis rats; settings: PEA 30 mg/kg; for Pr > F: 2x2 factorial analysis on weight change, ibuprofen 5 mg/kg, PEA*IBU = interaction (synergy)
Method: as §1, §2

[4] = test system: inflammatory pain induced by sub-plantar injection of carrageenan; assay: Von Frey filaments, inflammatory pain induced by sub-plantar injection of carrageenan (Experiment 3); assay type: in vivo, adult male Sprague-Dawley rats
Method: The experimental inflammatory pain model was induced through a sub-plantar injection of carrageenan (CAR) saline solution (0.1 mL of a 1% suspension of CAR in 0.85% saline). […] The PEA used in this experiment was in unprocessed (native) form. Von Frey filaments were used to evaluate pain, recording for each animal the mechanical tolerance threshold, i.e. the pressure (expressed in grams) endured before retracting the paw. The measurement took place using an analgesimeter (Ugo Basile, Comerio, Varese, Italy) and was conducted before the sub-plantar injection of the CAR and at the time of maximum damage (5 hours later).
The effect on pain was analyzed using Generalized Linear Model (GLM) followed by post-hoc analysis based on Tukey-Kramer correction for multiple comparisons. […] All analyses were performed using SAS software, version 9.4 (SAS Institute, Cary, NC, USA). P value < 0.05 was considered significant.

CCCCCCCCCCCCCCCC(=O)NCCO [PEA, N-palmitoylethanolamide]
Pr > F ([1]; ANOVA 2x2 on AUC of paw pressure test (Figure 2), diclofenac 3 mg/kg, line PEA*Dicl 3 = interaction (synergy)): 0.0002
Pr > F ([1]; ANOVA 2x2 on AUC of paw pressure test (Figure 4), meloxicam 3 mg/kg, line PEA*Mel 3 = interaction (synergy)): 0.0003
p with respect to the CFA group (pain tolerance threshold) ([1]; CFA-injected rats, single per os administration on day 7, micronized PEA 10 mg/kg and/or NSAID 3 mg/kg, GLMM with Tukey-Kramer): 0.9674 and 0.9588
pain tolerance threshold with respect to the CFA group ([1]; CFA-injected rats, single per os administration on day 7 after CFA, micronized PEA 10 mg/kg and/or NSAID 3 mg/kg, T0-T60 min, all times considered): no significant difference; also recorded: no significant effect
Pr > F ([2]; Giorno 33): <0,0001
Pr > F ([2]; Giorno 35): <0,0001
effect on arthritis score ([2]; day 31 up to end of study (day 35), oral from day 25, low-dose IBU 5 mg/kg, high-dose IBU 30 mg/kg): had no effect
Pr > F ([3]; 6° giorno di trattamento (G31)): <0,0001
Pr > F ([3]; 8° giorno di trattamento (G33)): <0,0001
Pr > F ([3]; 10° giorno di trattamento (G35)): <0,0001
effect on weight reduction induced by arthritis pain ([3]; from the 4th day of treatment (day 29) for the entire observation period, low-dose ibuprofen 5 mg/kg, high-dose IBU 30 mg/kg): neither PEA nor low-dose ibuprofen exerted any effect
Pr > F ([4]; 2x2 factorial analysis on tolerance threshold (Von Frey), native PEA 100 mg/kg, ibuprofen 5 mg/kg, PEA*Ibu = interaction (synergy)): 0,0046
mechanical tolerance threshold compared to the vehicle-treated group ([4]; single oral administration 30 minutes before carrageenan, measured 5 hours later, unprocessed (native) PEA 100 mg/kg and/or ibuprofen 5 mg/kg): inactive dose
